Laboratory results taken from patent US6603046B1, “Bis-aromatic a,β-unsaturated ketones” (Lica Pharmaceuticals A/S, priority 1992, dated 2003).
Read-outs that look alike come from different tables or passages of the source. Marks after values point to notes of the source that are not given here.

Key:
L. major promastigotes = L. major promastigotes from 4-days cultures, 3H-thymidine uptake (Examples 5, 14); type: cell-based, Leishmania major; settings: Leishmania major, Table 14.1, read-out: percentage inhibition of promastigotes (upper figure); for inhibition at 0.5 µg/mL: 0.5 μg/ml; for inhibition at 1 µg/mL: 1 μg/ml; for inhibition at 5 µg/mL: 5 μg/ml; for inhibition at 10 µg/mL: 10 μg/ml
Method: Parasite cultures. The same parasite culture as described in Example 4. Promastigotes were harvested on day 4 of the culture and used for the parasiticidal assay.
Effect on promastigotes. […] Following incubation, […] of ^3H-thymidine was added to each well and further incubated for 18 hrs. Promastigotes were then harvested on filter paper by means of a cell harvester (Skatron, Lierbyen, Norway), extensively washed with distilled water and counted in a scintillation counter (Minaxi Ti-Carb 4000, United Technologies, Packard, USA).
L. major promastigotes. The L. major promastigotes were prepared as described in Example 4 and harvested after 4 days.

P. falciparum = P. falciparum growth in vitro (Table 14.1, strain not stated); type: cell-based; settings: Plasmodium falciparum; for inhibition at 1 µg/mL: 1 μg/ml; for inhibition at 5 µg/mL: 5 μg/ml; for inhibition at 10 µg/mL: 10 μg/ml
Method: The P. falciparum experimental setup was as described in Example 15.
Testing of the effect of drugs and serum on the in vitro growth of the parasites. The experiments in which compounds were tested for their ability to inhibit parasite growth were performed by a modification of the method originally described by Jensen et al. (1982). Fifty μl of parasitized erythrocytes (parasitemia approximately 1%) in a concentration of 5×10^8/ml and 50 μl of RPMI medium containing different concentrations of the test compound was added to each well of a 96 well flat-bottomed microtiter plate (Nunc). The cultures were then incubated for 48 hours, 24 hours before termination of the culture adding 20 μl of 3-H-hypoxanthine (40 uCi/ml) (New England Nuclear, Boston, Mass., USA) was added to each well. The cultures were then harvested onto glass fiber filters using a Skatron cell harvester (Skatron, Lierbyen, Norway), and the incorporation of 3-H-hypoxanthine into the DNA of dividing parasites was determined by liquid scintillation spectrometry.

human lymphocytes = experiment: Lymphocyte Proliferation Assay, 3H-thymidine incorporation (Example 13); settings: Homo sapiens, Lymphocyte, read-out: inhibition of lymphocytes (lower figure)
Eimeria tenella = experiment: Anticoccidial activity in chickens infected with Eimeria tenella (Example 28); type: in vivo
[1] = 0.5 μg/ml, read-out: inhibition of malaria parasites (middle figure) (converted)
[2] = read-out: inhibition of malaria parasites (middle figure) (converted)
[3] = amount of feed consumed per kg chicken weight gain, doses as Table 28.1
[4] = in feed: salinomycin 70 ppm, 2,5 m4′ac and 2,4 mc 30 mg/kg/day, licochalcone A 10 mg/kg/day

Q: What does the source list for `C=CCOc1ccc(C(=O)/C=C/c2ccc(OC)cc2OC)cc1` [drawing 82]?
A: inhibition at 0.5 µg/mL (L. major promastigotes): 35.4%; inhibition at 1 µg/mL (L. major promastigotes): 62.8%; inhibition at 5 µg/mL (L. major promastigotes): 71.4%; inhibition at 10 µg/mL (L. major promastigotes): 85.4%; inhibition at 0.5 µg/mL (P. falciparum; [1]): 31.1%; inhibition at 1 µg/mL (P. falciparum; [2]): 36.5%; inhibition at 5 µg/mL (P. falciparum; [2]): 74.4%; inhibition at 10 µg/mL (P. falciparum; [2]): 97.3%; inhibition at 0.5 µg/mL (human lymphocytes): 0%; inhibition at 1 µg/mL (human lymphocytes): 1.7%; inhibition at 5 µg/mL (human lymphocytes): 5.9%; inhibition at 10 µg/mL (human lymphocytes): 5.5%

Q: Which results are given for `C=CCOc1ccc(C(=O)/C=C/c2c(OC)cccc2OC)cc1` [drawing 83]?
A: inhibition at 0.5 µg/mL (L. major promastigotes): 11.3 ± 9.8%; inhibition at 1 µg/mL (L. major promastigotes): 16.3 ± 12.4%; inhibition at 5 µg/mL (L. major promastigotes): 63.7 ± 24.2%; inhibition at 10 µg/mL (L. major promastigotes): 91.1 ± 4.1%; inhibition at 0.5 µg/mL (P. falciparum; [1]): 0%; inhibition at 1 µg/mL (P. falciparum; [2]): 27.4%; inhibition at 5 µg/mL (P. falciparum; [2]): 39.7%; inhibition at 10 µg/mL (P. falciparum; [2]): 65.7%; inhibition at 0.5 µg/mL (human lymphocytes): 1%; inhibition at 1 µg/mL (human lymphocytes): 1.3%; inhibition at 5 µg/mL (human lymphocytes): 0%; inhibition at 10 µg/mL (human lymphocytes): 0%

Q: Which results are given for `C=CCOc1ccc(C(=O)/C=C/c2ccc(OC)c(OC)c2)cc1` [drawing 84]?
A: inhibition at 0.5 µg/mL (L. major promastigotes): 15.2 ± 11.3%; inhibition at 1 µg/mL (L. major promastigotes): 30.4 ± 23.2%; inhibition at 5 µg/mL (L. major promastigotes): 70.4 ± 15.2%; inhibition at 10 µg/mL (L. major promastigotes): 90.8 ± 9.7%; inhibition at 0.5 µg/mL (P. falciparum; read-out: inhibition of malaria parasites (middle figure)): 2.9%; inhibition at 1 µg/mL (P. falciparum; [2]): 11.4%; inhibition at 5 µg/mL (P. falciparum; [2]): 22.8%; inhibition at 10 µg/mL (P. falciparum; [2]): 68%; inhibition at 1 µg/mL (human lymphocytes): 0%; inhibition at 5 µg/mL (human lymphocytes): 0%; inhibition at 10 µg/mL (human lymphocytes): 15.6%

Q: `C=CCOc1ccc(C(=O)/C=C/c2cc(OC)cc(OC)c2)cc1` [drawing 85] was tested. Which inhibition at 0.5 µg/mL (L. major promastigotes) did it give?
A: 10.6 ± 10.7%

Q: What about the inhibition at 1 µg/mL (L. major promastigotes) of the same compound?
A: 27.6 ± 23.3%

Q: And the inhibition at 5 µg/mL (L. major promastigotes)?
A: 82.8 ± 10%

Q: What about the inhibition at 10 µg/mL (L. major promastigotes) of the same compound?
A: 98.3 ± 0.9%

Q: What about the inhibition at 0.5 µg/mL (P. falciparum; [1]) of the same compound?
A: 13.8%

Q: What about the inhibition at 1 µg/mL (P. falciparum; [2]) of the same compound?
A: 15.3%

Q: What about the inhibition at 5 µg/mL (P. falciparum; [2]) of the same compound?
A: 74.3%

Q: And the inhibition at 10 µg/mL (P. falciparum; [2])?
A: 98.6%

Q: And the inhibition at 0.5 µg/mL (human lymphocytes)?
A: 0%

Q: What about the inhibition at 1 µg/mL (human lymphocytes) of the same compound?
A: 0%

Q: What about the inhibition at 5 µg/mL (human lymphocytes) of the same compound?
A: 4.6%

Q: And the inhibition at 10 µg/mL (human lymphocytes)?
A: 25.4%

Q: Which “feed consumption after 7 days of treatment” value (Eimeria tenella; [3]) does the source give for `CC[C@@H](C(=O)[C@@H](C)[C@@H](O)[C@H](C)[C@@H]1O[C@@H]([C@@H](CC)C(=O)O)CC[C@@H]1C)[C@H]1O[C@]2(C=C[C@@H](O)[C@]3(CC[C@@](C)([C@H]4CC[C@](O)(CC)[C@H](C)O4)O3)O2)[C@H](C)C[C@@H]1C` [salinomycin, reference compound] here?
A: 1.30

Q: What about the “feed consumption after 14 days of treatment” value (Eimeria tenella; [3]) of the same compound?
A: 1.44

Q: What about the “Weight gain in 7 days after initiation of treatment” value (Eimeria tenella; [4]) of the same compound?
A: 425 grams per chicken

Q: And the “Weight gain in 14 days after initiation of treatment” value (Eimeria tenella; [4])?
A: 900^a grams per chicken

Q: And the “Difference in weight gain to group 5 (control infected) after treatment for 14 days” value (Eimeria tenella; normal variation ±2%)?
A: ^aDifference between groups 1 (standard feed) and 5 (control infected) after treatment for 14 days is 12%.

Q: What about the Mortality (Eimeria tenella; number of chickens, groups of 35, licochalcone A 20) of the same compound?
A: 0
